From patent US20250214977A1, “STAT6 INHIBITORS AND USES THEREOF” (Kymera Therapeutics, Inc., priority 2024, published 2025) come the findings set out here.

A value given as a limit tells only on which side of the number the result lay.

The assay deals with Phosphorylation of STAT6 in human A549 cells. The assay can be described thus: Phosphorylated STAT6 (pSTAT6) flow cytometry assay in human A549 cells. Format: cell-based. To be noted: read-out: STAT6 IL4 pSTAT6 assay in A549 cells: Average IC50. An excerpt:
Example 3. Phosphorylated STAT6 (pSTAT6) Flow Cytometry Assay in Human A549 Cells
Phosphorylation of STAT6 in human A549 cells was quantitatively measured using flow cytometry technology.
By IC50 is commonly meant the midpoint of a concentration-inhibition curve. On to `COc1ccccc1-c1cc(C2=CCCN(C(=O)CCn3ccnn3)C2)c(F)c2[nH]c(C(=O)N3CCN(c4ncnc5[nH]cnc45)CC3)cc12` [Example I-946], for which the IC50 was less than 0.1 µM.
In the case of `CCn1ncc2c1CN(C(=O)c1cc3c(-c4ccccc4OC)cc(C4=CCCN(C(=O)CCn5ccnn5)C4)c(F)c3[nH]1)C2` [Example I-507], the IC50 lay in the range of 10 to 100 µM.
Turning to `COc1ccccc1-c1cc(C2=CCCN(C(C)=O)C2)c(F)c2sc(C(=O)N3CCN(c4ncccc4OC)CC3)cc12` [Example I-1106], the IC50 fell in the range of 1 to 10 µM.
For `COc1ccc(Cl)cc1-c1cc(C2=CCCN(C(=O)CCn3ccnn3)C2)cc2[nH]c(C(=O)N(C)C)cc12` [Example I-1058], the half-inhibitory concentration (IC50) is less than 0.1 µM.
On to `CN(C)C(=O)c1cc2c(C3CCCCC3)cc([C@H]3CCCN(C(=O)CCn4cccn4)C3)c(F)c2[nH]1` [Example I-840], for which the IC50 was less than 0.1 µM.
The value for `CN(C)C(=O)c1cc2cc(C3=CCCN(C(=O)CCn4ccnn4)C3)cc(-c3ccc(F)cc3O)c2o1` [Example I-1074] was less than 0.1 µM; that for `CN(C)C(=O)c1cc2cc(C3=CCCN(C(=O)C(Cn4ccnn4)c4cccc(C#N)c4)C3)ccc2o1` (stereo not drawn) [Example I-835] was 0.1 to 1 µM; that for `CN(C)C(=O)c1cc2ccc([C@H]3CCCN(C(=O)CCn4ccnn4)C3)c(F)c2[nH]1` (single isomer, unassigned) [Example I-1187] was less than 0.1 µM.
With `COC(=O)CCC#Cc1cccc2c1CC(C(=O)N1CCC=C(c3ccc4oc(C(=O)N(C)C)cc4c3)C1)N(C=O)C2` (stereo not drawn) [Example I-802, Methyl 5-(3-(5-(2-(dimethylcarbamoyl)benzofuran-5-yl)-1,2,3,6-tetrahydropyridine-1-carbonyl)-2-formyl-1,2,3,4-tetrahydroisoquinolin-5-yl)pent-4-ynoate], the IC50 is 0.1 to 1 µM.
Regarding `COc1ccccc1-c1cc(C2=CCCN(C(=O)CCn3ccnn3)C2)c(F)c2[nH]c(C(=O)N3CCN(c4cnc5nccnc5c4C)CC3)cc12` [Example I-944], the IC50 was less than 0.1 µM.
For the compound `COc1ccccc1-c1cc(C2=CCCN(C(=O)CCn3ccnn3)C2)c(F)c2[nH]c(C(=O)N3CCN(Cc4ccc(Cl)cc4)CC3)cc12` [Example I-868], the IC50 lay in the range of 0.1 to 1 µM.
With `COc1cccnc1N1CCN(C(=O)c2cc3c(-c4cnccc4C(C)C)cc(C4=CCCN(C(=O)CCn5ccnn5)C4)c(F)c3[nH]2)CC1` [Example I-607], the IC50 was more than 100 µM.
For `COc1cc(F)cnc1N1CCN(C(=O)c2cc3c(-c4ccc(-c5ccccn5)cc4)cc(C4=CCCN(C(=O)CCn5ccnn5)C4)c(F)c3[nH]2)CC1` [Example I-1120] the value was less than 0.1 µM; for `CCc1ccncc1-c1cc(C2=CCCN(C(=O)C(=O)O)C2)c(F)c2[nH]c(C(=O)N3CCN(c4ncc(F)cc4OC)CC3)cc12` [Example I-790], less than 0.1 µM; for `COc1ccccc1-c1cc(C2=CCCN(C(=O)CCn3ccnn3)C2)c(F)c2[nH]c(C(=O)N3CCc4cccc(OC)c4C3)cc12` [Example I-901], less than 0.1 µM.
For the compound `COc1ccncc1-c1cc(C2=CCCN(C(=O)CCn3ccnn3)C2)c(F)c2[nH]c(C(=O)N3CCN(c4cccnc4C#N)CC3)cc12` [Example I-493], the IC50 is more than 100 µM.
The value for `COc1ccc(F)cc1-c1cc(C2=CCCN(C(=O)CCn3ccnn3)C2)c(F)c2[nH]c(C(=O)N3CCN(c4ncccc4OC)CC3)cc12` [Example I-395] was more than 100 µM; that for `COc1cncc(C)c1-c1cc(C2=CCCN(C(=O)CCn3ccnn3)C2)cc2cc(C(=O)N(C)C)oc12` [Example I-1090] was less than 0.1 µM; that for `COc1cnccc1-c1cc(C(=O)N2CCN(c3ncc(F)cc3OC)CC2)cc2cc(C3=CCCN(C(=O)CCn4ccnn4)C3)n(CC3CC3)c12` [Example I-729] was less than 0.1 µM.
As for `CCOc1ccncc1-c1cc(C2=CCCN(C(=O)CCn3ccnn3)C2)c(F)c2[nH]c(C(=O)N3CCN(c4ncc(C)nc4OC)CC3)cc12` [Example I-1041], the IC50 was less than 0.1 µM.
For the compound `COc1cc(N(C)C)ccc1-c1cc(C2=CCCN(C(=O)CCn3ccnn3)C2)c(F)c2[nH]c(C(=O)N3CCN(c4ccccc4OC)CC3)cc12` [Example I-610], the half-maximal inhibitory concentration (IC50) is less than 0.1 µM.
For `COc1ccccc1-c1cc(C2=CCCN(C(=O)CCn3ccnn3)C2)c(F)c2[nH]c(C(=O)N3CCN(c4cnn(C)c4C#N)CC3)cc12` [Example I-1005] the value was less than 0.1 µM; for `COc1cc(F)cnc1N1CCN(C(=O)c2cc3c(-c4cccc(-n5nc(C)cc5C)c4)cc(C4=CCCN(C(=O)CCn5ccnn5)C4)c(F)c3[nH]2)CC1` [Example I-620], less than 0.1 µM; for `CCc1nc(C)ccc1-c1cc(C(=O)N2CCN(c3ncc(F)cc3OC)CC2)cc2cc(C3=CCCN(C(=O)CCC(=O)O)C3)n(CC3CC3)c12` [Example I-527], less than 0.1 µM.
With `COc1ccccc1-c1cc(C2=CCCN(C(=O)CCn3ccnn3)C2)c(F)c2[nH]c(C(=O)N3CCN(c4ncc(N5CCCCC5)cc4OC4CC4)CC3)cc12` [Example I-961], the IC50 is less than 0.1 µM.
As for `CN(C)C(=O)c1cc2cc(C3=CCCN(C(=O)CCn4ccnn4)C3)cc(-c3ccc4cnn(C)c4c3)c2o1` [Example I-1072], the IC50 was less than 0.1 µM.
For the compound `COc1cc(F)cnc1N1CCN(C(=O)c2cc3c(-c4ccc(OCC5CC5)nc4)cc(C4=CCCN(C(=O)CCn5ccnn5)C4)c(F)c3[nH]2)CC1` [Example I-1164], the IC50 is 0.1 to 1 µM.
Take `CCc1ccncc1-c1cc(C2=CCC[C@H](C(=O)O)C2)c(F)c2[nH]c(C(=O)N3CCN(c4ncc(F)cc4OC)CC3)cc12` (single isomer, unassigned) [Example I-809]: the IC50 was more than 100 µM.
In the case of `COc1cc(F)cnc1N1CCN(C(=O)c2cc3c(-c4cc(C)ncc4C)cc(C4=CCCN(C(=O)CCn5ccnn5)C4)c(F)c3[nH]2)CC1` [Example I-646], the IC50 was less than 0.1 µM.
With `COc1ccccc1-c1cc(C2=CCCN(C(=O)CCn3ccnn3)C2)c(F)c2[nH]c(C(=O)N3CCN(c4ccc[nH]c4=O)CC3)cc12` [Example I-1003], the IC50 is less than 0.1 µM.
In the case of `COc1cc(F)cnc1N1CCN(C(=O)c2cc3c(-c4cccc5cnccc45)cc(C4=CCCN(C(=O)CCn5ccnn5)C4)c(F)c3[nH]2)CC1` [Example I-1119], the IC50 was less than 0.1 µM.
`COc1ccccc1-c1cc(C2=CCCN(C(=O)CCn3ccnn3)C2)c(F)c2[nH]c(C(=O)N3CCN(c4nccc5ccncc45)CC3)cc12` [Example I-355]: the IC50 is less than 0.1 µM.
As to `COc1ccc(F)cc1-c1cc(C2=CCCN(C(=O)CCn3ccnn3)C2)c(F)c2[nH]c(C(=O)N3CCN(c4ccccc4OC)CC3)cc12` [Example I-566], the IC50 was less than 0.1 µM.
In the case of `COc1cc(F)cnc1N1CCN(C(=O)c2cc3c(-c4cccc(C5CC5)c4)cc(C4=CCCN(C(=O)CCn5ccnn5)C4)c(F)c3[nH]2)CC1` [Example I-674], the IC50 was 0.1 to 1 µM.
The value for `CC(=O)N1CCN(c2cc(C3=CCCN(C(=O)CCn4ccnn4)C3)cc3cc(C(=O)N(C)C)oc23)CC1` [Example I-1186] was less than 0.1 µM; that for `COc1cc(F)c(F)cc1-c1cc(C2=CCCN(C(=O)CCn3ccnn3)C2)c(F)c2[nH]c(C(=O)N3CCN(c4ncccc4OC)CC3)cc12` [Example I-559] was less than 0.1 µM; that for `COc1cc(F)cnc1N1CCN(C(=O)c2cc3c(-c4cnn(Cc5ccccc5)c4)cc(C4=CCCN(C(=O)CCn5ccnn5)C4)c(F)c3[nH]2)CC1` [Example I-1115] was less than 0.1 µM.
As for `COc1cc(C)ncc1-c1cc(C2=CCCN(C(=O)CCn3ccnn3)C2)c(F)c2[nH]c(C(=O)N3CCN(c4ncccc4OC)CC3)cc12` [Example I-570], the IC50 was less than 0.1 µM.
The value for `COc1ccccc1-c1cc(C2=CCCN(C(=O)CCn3ccnn3)C2)c(F)c2[nH]c(C(=O)N3CCN(CC4(C)COC4)CC3)cc12` [Example I-1183] was less than 0.1 µM.
Consider `CCc1ccc(-c2cc(C3=CCCN(C(=O)CCn4ccnn4)C3)c(F)c3[nH]c(C(=O)N4Cc5cnn(CC)c5C4)cc23)c(C)n1` [Example I-761], for which the IC50 was more than 100 µM.
`COc1ccccc1-c1cc(C2=CCCN(C(=O)CCn3ccnn3)C2)c(F)c2[nH]c(C(=O)N3CCC4CC43)cc12` (stereo not drawn) [Example I-1011]: the IC50 was less than 0.1 µM.
With `COc1ccccc1-c1cc(C2=CCCN(C(=O)CCn3ccnn3)C2)c(F)c2[nH]c(C(=O)N3CCN(Cc4noc(C)n4)CC3)cc12` [Example I-1201], the IC50 is less than 0.1 µM.
For `COc1ccccc1-c1cc(C2=CCCN(C(=O)CCn3ccnn3)C2)c(F)c2[nH]c(C(=O)N3CCN(C4CC5CCC4C5)CC3)cc12` (stereo not drawn) [Example I-1181] the value was less than 0.1 µM; for `COc1ccncc1-c1cc(C2=CCCN(C(=O)CCn3ccnn3)C2)c(F)c2[nH]c(C(=O)N3CCN(C4CC4)CC3)cc12` [Example I-587], less than 0.1 µM.
On to `COc1ccccc1-c1cc(C2=CCCN(C(=O)CCn3ccnn3)C2)c(F)c2[nH]c(C(=O)N3CC=C(c4ncccc4OC)CC3)cc12` [Example I-425], for which the IC50 is less than 0.1 µM.
Regarding `COc1cc(C(F)(F)F)cnc1N1CCN(C(=O)c2cc3c(-c4cnc5ccccc5c4OC)cc(C4=CCCN(C(=O)CCn5ccnn5)C4)c(F)c3[nH]2)CC1` [Example I-446], the IC50 fell in the range of 1 to 10 µM.
Take `COc1ccccc1-c1cc(C2=CCCN(C(=O)CCn3ccnn3)C2)c(F)c2[nH]c(C(=O)N3CCN(c4ccc5c(c4)c4ccccc4n5C)CC3)cc12` [Example I-770]: the IC50 lay in the range of 1 to 10 µM.
Regarding `COCCOc1cccnc1N1CCN(C(=O)c2cc3c(-c4ccccc4OC)cc(C4=CCCN(C(=O)CCn5ccnn5)C4)c(F)c3[nH]2)CC1` [Example I-330], the IC50 is less than 0.1 µM.
On to `COc1cccnc1N1CCN(C(=O)c2cc3c(C4CCC5(CCNCC5)CC4)cc(C4=CCCN(C(=O)CCn5ccnn5)C4)c(F)c3[nH]2)CC1` [Example I-698], for which the IC50 is 10 to 100 µM.
For `CCc1cnccc1-c1cc(C2=CCCN(C(=O)CCn3ccnn3)C2)c(F)c2[nH]c(C(=O)N3CCN(c4ncc(F)cc4OC)CC3)cc12` [Example I-689], the IC50 was less than 0.1 µM.
Regarding `CCC1CCCCC1c1cc(C2=CCCN(C(=O)CCn3ccnn3)C2)c(F)c2[nH]c(C(=O)N3CCN(c4ncc(F)cc4OC)CC3)cc12` (single isomer, unassigned) [Example I-1175], the IC50 lay within 0.1 to 1 µM.
